These results are taken from US20090018134A1, “Compounds - 945” (AstraZeneca AB, priority 2007, published 2009).

pIC50: −log10 of the molar value.

The assay addresses T1, mTOR (Homo sapiens, UniProt P42345).
T1 construct: FLAG; made in house
Nature of the assay: In Vitro mTOR Kinase Assay (Echo), Test (a)(ii). It is filed as biochemical. To be noted: table of enzyme assay Test (a)(ii); read-out: Test (a)(ii) IC50. A digest of the protocol:
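AlphaScreen read-out: biotinylated substrate phosphorylation was detected with anti-p70 S6K (T389) 1A5 antibody, Protein A acceptor and streptavidin donor beads after overnight dark incubation at room temperature. Enzyme was FLAG-mTOR 1362-2549 from stable HEK293 cells.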

T1 sequence (P42345 1362-2549): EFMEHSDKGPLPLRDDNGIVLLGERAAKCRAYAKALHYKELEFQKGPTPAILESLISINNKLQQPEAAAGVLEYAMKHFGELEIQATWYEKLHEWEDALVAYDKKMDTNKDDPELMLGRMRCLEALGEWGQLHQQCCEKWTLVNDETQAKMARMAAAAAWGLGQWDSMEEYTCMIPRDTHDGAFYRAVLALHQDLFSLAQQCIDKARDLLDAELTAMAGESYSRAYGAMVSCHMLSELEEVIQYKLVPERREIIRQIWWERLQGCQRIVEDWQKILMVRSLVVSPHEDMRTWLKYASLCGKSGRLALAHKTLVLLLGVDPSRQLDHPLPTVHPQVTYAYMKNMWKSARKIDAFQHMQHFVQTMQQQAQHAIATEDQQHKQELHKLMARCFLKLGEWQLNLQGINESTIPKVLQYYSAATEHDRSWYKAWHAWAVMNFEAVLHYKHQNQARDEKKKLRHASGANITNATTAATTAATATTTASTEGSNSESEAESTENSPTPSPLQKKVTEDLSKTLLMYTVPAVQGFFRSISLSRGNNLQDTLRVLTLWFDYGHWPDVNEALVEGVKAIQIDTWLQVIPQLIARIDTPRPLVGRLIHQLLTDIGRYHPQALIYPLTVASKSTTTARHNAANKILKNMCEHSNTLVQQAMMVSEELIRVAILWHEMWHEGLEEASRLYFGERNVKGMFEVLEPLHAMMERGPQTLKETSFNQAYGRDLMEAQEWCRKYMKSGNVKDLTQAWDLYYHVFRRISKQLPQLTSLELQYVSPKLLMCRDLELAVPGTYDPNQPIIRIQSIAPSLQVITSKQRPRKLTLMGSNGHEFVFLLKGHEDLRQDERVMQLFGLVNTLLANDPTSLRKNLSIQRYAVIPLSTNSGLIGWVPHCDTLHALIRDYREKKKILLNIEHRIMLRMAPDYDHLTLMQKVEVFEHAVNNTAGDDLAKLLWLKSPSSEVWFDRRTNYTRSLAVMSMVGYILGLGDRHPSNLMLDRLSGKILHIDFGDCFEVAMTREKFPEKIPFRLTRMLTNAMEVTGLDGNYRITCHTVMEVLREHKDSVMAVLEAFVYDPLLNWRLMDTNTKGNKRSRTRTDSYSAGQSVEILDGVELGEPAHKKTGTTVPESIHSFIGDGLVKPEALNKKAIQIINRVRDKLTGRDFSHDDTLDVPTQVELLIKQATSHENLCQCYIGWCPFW

As usually defined, the pIC50 is −log10 of the IC50, conventionally taken in molar units. As for `C[C@H]1COCCN1c1cc(C2(S(=O)(=O)c3ccccc3Cl)CC2)nc(-c2ccc(NC(=O)NCCO)cc2)n1` [Example 76c, 1-[4-[4-[1-(2-chlorophenyl)sulfonylcyclopropyl]-6-[(3S)-3-methylmorpholin-4-yl]pyrimidin-2-yl]phenyl]-3-(2-hydroxyethyl)urea], the pIC50 was 8.50.

Turning to `C[C@H]1COCCN1c1cc(C2(S(=O)(=O)c3ccccc3Cl)CC2)nc(-c2ccc(NC(=O)NCC(F)F)cc2)n1` [Example 76d, 1-[4-[4-[1-(2-chlorophenyl)sulfonylcyclopropyl]-6-[(3S)-3-methylmorpholin-4-yl]pyrimidin-2-yl]phenyl]-3-(2,2-difluoroethyl)urea], the pIC50 was 8.03.

As for `C[C@H]1COCCN1c1cc(C2(S(=O)(=O)c3ccccc3Cl)CC2)nc(-c2ccc(NC(=O)NCCF)cc2)n1` [Example 76e, 1-[4-[4-[1-(2-chlorophenyl)sulfonylcyclopropyl]-6-[(3S)-3-methylmorpholin-4-yl]pyrimidin-2-yl]phenyl]-3-(2-fluoroethyl)urea], the pIC50 is 8.25.

Consider `C[C@H]1COCCN1c1cc(C2(S(=O)(=O)c3ccccc3Cl)CC2)nc(-c2ccc(NC(=O)Nc3cnn(C)c3)cc2)n1` [Example 76f, 1-[4-[4-[1-(2-chlorophenyl)sulfonylcyclopropyl]-6-[(3S)-3-methylmorpholin-4-yl]pyrimidin-2-yl]phenyl]-3-(1-methylpyrazol-4-yl)urea], for which the pIC50 is 8.17.

As for `C[C@H]1COCCN1c1cc(C2(S(=O)(=O)c3ccc(C#N)cc3)CC2)nc(-c2ccc(NC(=O)NC3CC3)cc2)n1` [Example 77, 1-[4-[4-[1-(4-Cyanophenyl)sulfonylcyclopropyl]-6-[(3S)-3-methylmorpholin-4-yl]pyrimidin-2-yl]phenyl]-3-cyclopropylurea], the pIC50 is 8.09.

Regarding `CNC(=O)Nc1ccc(-c2nc(N3CCOC[C@@H]3C)cc(C3(S(=O)(=O)c4ccc(C#N)cc4)CC3)n2)cc1` [Example 77a, 1-[4-[4-[1-(4-cyanophenyl)sulfonylcyclopropyl]-6-[(3S)-3-methylmorpholin-4-yl]pyrimidin-2-yl]phenyl]-3-methylurea], the pIC50 is 8.28.

In the case of `CCNC(=O)Nc1ccc(-c2nc(N3CCOC[C@@H]3C)cc(C3(S(=O)(=O)c4ccc(C#N)cc4)CC3)n2)cc1` [Example 77b, 3-[4-[4-[1-(4-cyanophenyl)sulfonylcyclopropyl]-6-[(3S)-3-methylmorpholin-4-yl]pyrimidin-2-yl]phenyl]-1-ethylurea], the pIC50 is 8.07.

In the case of `C[C@H]1COCCN1c1cc(C2(S(=O)(=O)c3ccc(C#N)cc3)CC2)nc(-c2ccc(NC(=O)NCCO)cc2)n1` [Example 77c, 1-[4-[4-[1-(4-cyanophenyl)sulfonylcyclopropyl]-6-[(3S)-3-methylmorpholin-4-yl]pyrimidin-2-yl]phenyl]-3-(2-hydroxyethyl)urea], the negative logarithm of the IC50 (pIC50) was 8.36.

For the molecule `C[C@H]1COCCN1c1cc(C2(S(=O)(=O)c3ccc(C#N)cc3)CC2)nc(-c2ccc(NC(=O)NCC(F)F)cc2)n1` [Example 77d, 1-[4-[4-[1-(4-cyanophenyl)sulfonylcyclopropyl]-6-[(3S)-3-methylmorpholin-4-yl]pyrimidin-2-yl]phenyl]-3-(2,2-difluoroethyl)urea], the pIC50 is 8.00.

As for `C[C@H]1COCCN1c1cc(C2(S(=O)(=O)c3ccc(C#N)cc3)CC2)nc(-c2ccc(NC(=O)NCCF)cc2)n1` [Example 77e, 1-[4-[4-[1-(4-cyanophenyl)sulfonylcyclopropyl]-6-[(3S)-3-methylmorpholin-4-yl]pyrimidin-2-yl]phenyl]-3-(2-fluoroethyl)urea], the pIC50 was 8.29.

Take `C[C@H]1COCCN1c1cc(C2(S(=O)(=O)c3ccc(C#N)cc3)CC2)nc(-c2ccc(NC(=O)Nc3cnn(C)c3)cc2)n1` [Example 77f, 1-[4-[4-[1-(4-cyanophenyl)sulfonylcyclopropyl]-6-[(3S)-3-methylmorpholin-4-yl]pyrimidin-2-yl]phenyl]-3-(1-methylpyrazol-4-yl)urea]: the pIC50 was 8.04.

`Cc1nc(C)c(S(=O)(=O)C2(c3cc(N4CCOC[C@@H]4C)nc(-c4ccc(NC(=O)NC5CC5)cc4)n3)CC2)s1` [Example 78, 3-Cyclopropyl-1-[4-[4-[1-[(2,4-dimethyl-1,3-thiazol-5-yl)sulfonyl]cyclopropyl]-6-[(3S)-3-methylmorpholin-4-yl]pyrimidin-2-yl]phenyl]urea]: the pIC50 was 7.38.

`CNC(=O)Nc1ccc(-c2nc(N3CCOC[C@@H]3C)cc(C3(S(=O)(=O)c4sc(C)nc4C)CC3)n2)cc1` [Example 78a, 1-[4-[4-[1-[(2,4-dimethyl-1,3-thiazol-5-yl)sulfonyl]cyclopropyl]-6-[(3S)-3-methylmorpholin-4-yl]pyrimidin-2-yl]phenyl]-3-methylurea]: the pIC50 is 7.82.

With `CCNC(=O)Nc1ccc(-c2nc(N3CCOC[C@@H]3C)cc(C3(S(=O)(=O)c4sc(C)nc4C)CC3)n2)cc1` [Example 78b, 3-[4-[4-[1-[(2,4-dimethyl-1,3-thiazol-5-yl)sulfonyl]cyclopropyl]-6-[(3S)-3-methylmorpholin-4-yl]pyrimidin-2-yl]phenyl]-1-ethylurea], the pIC50 is 7.48.

As to `Cc1nc(C)c(S(=O)(=O)C2(c3cc(N4CCOC[C@@H]4C)nc(-c4ccc(NC(=O)NCCO)cc4)n3)CC2)s1` [Example 78c, 1-[4-[4-[1-[(2,4-dimethyl-1,3-thiazol-5-yl)sulfonyl]cyclopropyl]-6-[(3S)-3-methylmorpholin-4-yl]pyrimidin-2-yl]phenyl]-3-(2-hydroxyethyl)urea], the pIC50 is 7.68.

Regarding `Cc1nc(C)c(S(=O)(=O)C2(c3cc(N4CCOC[C@@H]4C)nc(-c4ccc(NC(=O)NCC(F)F)cc4)n3)CC2)s1` [Example 78d, 3-(2,2-difluoroethyl)-1-[4-[4-[1-[(2,4-dimethyl-1,3-thiazol-5-yl)sulfonyl]cyclopropyl]-6-[(3S)-3-methylmorpholin-4-yl]pyrimidin-2-yl]phenyl]urea], the pIC50 is 7.76.

For `Cc1nc(C)c(S(=O)(=O)C2(c3cc(N4CCOC[C@@H]4C)nc(-c4ccc(NC(=O)NCCF)cc4)n3)CC2)s1` [Example 78e, 1-[4-[4-[1-[(2,4-dimethyl-1,3-thiazol-5-yl)sulfonyl]cyclopropyl]-6-[(3S)-3-methylmorpholin-4-yl]pyrimidin-2-yl]phenyl]-3-(2-fluoroethyl)urea], the pIC50 is 7.62.

Turning to `Cc1nc(C)c(S(=O)(=O)C2(c3cc(N4CCOC[C@@H]4C)nc(-c4ccc(NC(=O)Nc5cnn(C)c5)cc4)n3)CC2)s1` [Example 78f, 1-[4-[4-[1-[(2,4-dimethyl-1,3-thiazol-5-yl)sulfonyl]cyclopropyl]-6-[(3S)-3-methylmorpholin-4-yl]pyrimidin-2-yl]phenyl]-3-(1-methylpyrazol-4-yl)urea], the pIC50 is 7.54.

Turning to `C[C@H]1COCCN1c1cc(C2(S(=O)(=O)CCC(C)(C)O)CC2)nc(-c2ccc(NC(=O)NC3CC3)cc2)n1` [Example 79, 3-Cyclopropyl-1-[4-[4-[1-(3-hydroxy-3-methylbutyl)sulfonylcyclopropyl]-6-[(3S)-3-methylmorpholin-4-yl]pyrimidin-2-yl]phenyl]urea], the pIC50 is 7.73.

With `CNC(=O)Nc1ccc(-c2nc(N3CCOC[C@@H]3C)cc(C3(S(=O)(=O)CCC(C)(C)O)CC3)n2)cc1` [Example 79a, 1-[4-[4-[1-(3-hydroxy-3-methylbutyl)sulfonylcyclopropyl]-6-[(3S)-3-methylmorpholin-4-yl]pyrimidin-2-yl]phenyl]-3-methylurea], the pIC50 was 7.65.

For the molecule `C[C@H]1COCCN1c1cc(C2(S(=O)(=O)CCC(C)(C)O)CC2)nc(-c2ccc(NC(=O)NCCO)cc2)n1` [Example 79b, 3-(2-hydroxyethyl)-1-[4-[4-[1-(3-hydroxy-3-methylbutyl)sulfonylcyclopropyl]-6-[(3S)-3-methylmorpholin-4-yl]pyrimidin-2-yl]phenyl]urea], the pIC50 was 7.96.

As for `C[C@H]1COCCN1c1cc(C2(S(=O)(=O)CCC(C)(C)O)CC2)nc(-c2ccc(NC(=O)NCCF)cc2)n1` [Example 79d, 3-(2-fluoroethyl)-1-[4-[4-[1-(3-hydroxy-3-methylbutyl)sulfonylcyclopropyl]-6-[(3S)-3-methylmorpholin-4-yl]pyrimidin-2-yl]phenyl]urea], the pIC50 is 7.79.

For `C[C@H]1COCCN1c1cc(C2(S(=O)(=O)CCC(C)(C)O)CC2)nc(-c2ccc(NC(=O)Nc3cnn(C)c3)cc2)n1` [Example 79e, 1-[4-[4-[1-(3-hydroxy-3-methylbutyl)sulfonylcyclopropyl]-6-[(3S)-3-methylmorpholin-4-yl]pyrimidin-2-yl]phenyl]-3-(1-methylpyrazol-4-yl)urea], the negative logarithm of the IC50 (pIC50) is 7.59.

In the case of `CCNC(=O)Nc1ccc(-c2nc(N3CCOC[C@@H]3C)cc(C3(S(=O)(=O)CCC(C)(C)O)CC3)n2)cc1` [Example 79f, 1-ethyl-3-[4-[4-[1-(3-hydroxy-3-methylbutyl)sulfonylcyclopropyl]-6-[(3S)-3-methylmorpholin-4-yl]pyrimidin-2-yl]phenyl]urea], the pIC50 was 7.40.

For `Cc1nc(S(=O)(=O)C2(c3cc(N4CCOC[C@@H]4C)nc(-c4ccc(NC(=O)NCC(F)F)cc4)n3)CC2)sc1C` [Example 80, 3-(2,2-Difluoroethyl)-1-[4-[4-[1-[(4,5-dimethyl-1,3-thiazol-2-yl)sulfonyl]cyclopropyl]-6-[(3S)-3-methylmorpholin-4-yl]pyrimidin-2-yl]phenyl]urea], the pIC50 is 7.71.

For the molecule `Cc1nc(S(=O)(=O)C2(c3cc(N4CCOC[C@@H]4C)nc(-c4ccc(NC(=O)NCCF)cc4)n3)CC2)sc1C` [Example 80a, 1-[4-[4-[1-[(4,5-dimethyl-1,3-thiazol-2-yl)sulfonyl]cyclopropyl]-6-[(3S)-3-methylmorpholin-4-yl]pyrimidin-2-yl]phenyl]-3-(2-fluoroethyl)urea], the pIC50 is 7.84.

Take `Cc1nc(S(=O)(=O)C2(c3cc(N4CCOC[C@@H]4C)nc(-c4ccc(NC(=O)NC5CC5)cc4)n3)CC2)sc1C` [Example 80b, 3-cyclopropyl-1-[4-[4-[1-[(4,5-dimethyl-1,3-thiazol-2-yl)sulfonyl]cyclopropyl]-6-[(3S)-3-methylmorpholin-4-yl]pyrimidin-2-yl]phenyl]urea]: the pIC50 is 7.99.
